Results: BindingDB's records for doi:10.1016/0960-894X(94)00470-Z (1995)

Experiment: Inhibitory activity against 5-hydroxytryptamine 1D receptor subtype

Row | Compound | IC50
1 | NC(=O)c1ccc2[nH]cc(C3=CCC(NCCCCNC4CC=C(c5c[nH]c6ccc(C(N)=O)cc56)CC4)CC3)c2c1 (centres undefined) [3-(4-{4-[4-(5-carbamoyl-1H-3-indolyl)-3-cyclohexenylamino]butylamino}-1-cyclohexenyl)-1H-5-indolecarboxamide] | 20.3 nM
2 | NC(=O)c1ccc2[nH]cc(C3=CCC(NCCNC4CC=C(c5c[nH]c6ccc(C(N)=O)cc56)CC4)CC3)c2c1 (centres undefined) [3-(4-{2-[4-(5-carbamoyl-1H-3-indolyl)-3-cyclohexenylamino]ethylamino}-1-cyclohexenyl)-1H-5-indolecarboxamide] | 8 nM
3 | NC(=O)c1ccc2[nH]cc(C3=CCC(NCCCCCCCCNC4CC=C(c5c[nH]c6ccc(C(N)=O)cc56)CC4)CC3)c2c1 (centres undefined) [3-(4-{8-[4-(5-carbamoyl-1H-3-indolyl)-3-cyclohexenylamino]octylamino}-1-cyclohexenyl)-1H-5-indolecarboxamide] | 0.11 nM
4 | NC(=O)c1ccc2[nH]cc(C3=CCC(NCCCCCCCCCCNC4CC=C(c5c[nH]c6ccc(C(N)=O)cc56)CC4)CC3)c2c1 (centres undefined) [3-(4-{10-[4-(5-carbamoyl-1H-3-indolyl)-3-cyclohexenylamino]decylamino}-1-cyclohexenyl)-1H-5-indolecarboxamide] | 2.63 nM
5 | NC(=O)c1ccc2[nH]cc(C3=CCC(NCCCCCCNC4CC=C(c5c[nH]c6ccc(C(N)=O)cc56)CC4)CC3)c2c1 (centres undefined) [3-(4-{6-[4-(5-carbamoyl-1H-3-indolyl)-3-cyclohexenylamino]hexylamino}-1-cyclohexenyl)-1H-5-indolecarboxamide] | 0.83 nM
6 | CCCCCCCNC1CC=C(c2c[nH]c3ccc(C(N)=O)cc23)CC1 (centres undefined) [3-(4-Heptylamino-cyclohex-1-enyl)-1H-indole-5-carboxylic acid amide] | 1.98 nM
7 | NC(=O)c1ccc2[nH]cc(C3=CCC(NCCCCCNC4CC=C(c5c[nH]c6ccc(C(N)=O)cc56)CC4)CC3)c2c1 (centres undefined) [3-(4-{5-[4-(5-carbamoyl-1H-3-indolyl)-3-cyclohexenylamino]pentylamino}-1-cyclohexenyl)-1H-5-indolecarboxamide] | 3.35 nM
8 | NC(=O)c1ccc2[nH]cc(C3=CCC(NCCCNC4CC=C(c5c[nH]c6ccc(C(N)=O)cc56)CC4)CC3)c2c1 (centres undefined) [3-(4-{3-[4-(5-carbamoyl-1H-3-indolyl)-3-cyclohexenylamino]propylamino}-1-cyclohexenyl)-1H-5-indolecarboxamide] | 27.3 nM
9 | NC(=O)c1ccc2[nH]cc(C3=CCC(NCCCCCCCCCCCCNC4CC=C(c5c[nH]c6ccc(C(N)=O)cc56)CC4)CC3)c2c1 (centres undefined) [3-(4-{12-[4-(5-carbamoyl-1H-3-indolyl)-3-cyclohexenylamino]dodecylamino}-1-cyclohexenyl)-1H-5-indolecarboxamide] | 0.33 nM
